# In ChEMBL document CHEMBL1201861, “Genomics of Drug Sensitity in Cancer screening data, Wellcome Trust Sanger Institute”:
# What was measured:
# Experiment in all cases: cells
# [1] = system: MFM-223; assay type: functional, cell-based, Homo sapiens; details: Homo sapiens, MFM-223
# Description: SANGER: Inhibition of human MFM-223 cell growth in a cell viability assay.
# [2] = system: MZ7-mel; assay type: functional, cell-based, Homo sapiens; details: Homo sapiens, MZ7-mel;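 further: growth inhibition of human MZ7-mel cells, measured by a cell viability assay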
# Description: SANGER: Inhibition of human MZ7-mel cell growth in a cell viability assay.
# [3] = system: NB6; assay type: functional, cell-based, Homo sapiens; details: Homo sapiens, NB6;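 further: growth inhibition of NB6 cells, read out by a cell viability assay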
# Description: SANGER: Inhibition of human NB6 cell growth in a cell viability assay.
# [4] = system: SW872; assay type: functional, cell-based, Homo sapiens; details: Homo sapiens, SW872;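 further: growth inhibition of SW872 cells, read out by a viability assay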
# Description: SANGER: Inhibition of human SW872 cell growth in a cell viability assay.
# [5] = system: MOLT-16; assay type: functional, cell-based, Homo sapiens; details: Homo sapiens, MOLT-16;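 further: growth inhibition of human MOLT-16 cells, read out with a cell viability assay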
# Description: SANGER: Inhibition of human MOLT-16 cell growth in a cell viability assay.
# [6] = system: HL-60; assay type: functional, cell-based, Homo sapiens; details: Homo sapiens, HL-60;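 further: growth inhibition of human HL-60 cells, read out with a cell viability assay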
# Description: SANGER: Inhibition of human HL-60 cell growth in a cell viability assay.
# [7] = system: A4-Fuk; assay type: functional, cell-based, Homo sapiens; details: Homo sapiens, A4-Fuk;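 further: growth inhibition of A4-Fuk cells, read out by a cell viability assay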
# Description: SANGER: Inhibition of human A4-Fuk cell growth in a cell viability assay.
# [8] = system: MHH-PREB-1; assay type: functional, cell-based, Homo sapiens; details: Homo sapiens, MHH-PREB-1;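 further: cell viability assay measuring inhibition of proliferation of human MHH-PREB-1 cells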
# Description: SANGER: Inhibition of human MHH-PREB-1 cell growth in a cell viability assay.
# [9] = system: EKVX; assay type: functional, cell-based, Homo sapiens; details: Homo sapiens, EKVX;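 further: growth inhibition of human EKVX cells, read out with a cell viability assay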
# Description: SANGER: Inhibition of human EKVX cell growth in a cell viability assay.
# [10] = system: HAL-01; assay type: functional, cell-based, Homo sapiens; details: Homo sapiens, HAL-01;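 further: growth inhibition of human HAL-01 cells, read out with a cell viability assay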
# Description: SANGER: Inhibition of human HAL-01 cell growth in a cell viability assay.
# [11] = system: L-363; assay type: functional, cell-based, Homo sapiens; details: Homo sapiens, L-363
# Description: SANGER: Inhibition of human L-363 cell growth in a cell viability assay.
# [12] = system: P30-OHK; assay type: functional, cell-based, Homo sapiens; details: Homo sapiens, P30-OHK;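 further: growth inhibition of the P30-OHK cell line, read out with a cell viability assay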
# Description: SANGER: Inhibition of human P30-OHK cell growth in a cell viability assay.
# [13] = system: TE-5; assay type: functional, cell-based, Homo sapiens; details: Homo sapiens, TE-5;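 further: inhibition of cell growth, read out by a cell viability assay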
# Description: SANGER: Inhibition of human TE-5 cell growth in a cell viability assay.
# [14] = system: SNB-75; assay type: functional, cell-based, Homo sapiens; details: Homo sapiens, SNB-75;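 further: cell viability assay measuring growth inhibition of human SNB-75 cells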
# Description: SANGER: Inhibition of human SNB75 cell growth in a cell viability assay.
# [15] = system: Mo; assay type: functional, cell-based, Homo sapiens; details: Homo sapiens, Mo
# Description: SANGER: Inhibition of human Mo-T cell growth in a cell viability assay.
# [16] = system: EW-11; assay type: functional, cell-based, Homo sapiens; details: Homo sapiens, EW-11;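 further: growth inhibition of human EW-11 cells, measured with a cell viability assay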
# Description: SANGER: Inhibition of human EW-11 cell growth in a cell viability assay.
# [17] = system: NKM-1; assay type: functional, cell-based, Homo sapiens; details: Homo sapiens, NKM-1;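 further: growth inhibition of NKM-1 cells, read out with a cell viability assay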
# Description: SANGER: Inhibition of human NKM-1 cell growth in a cell viability assay.
# [18] = system: 697; assay type: functional, cell-based, Homo sapiens; details: Homo sapiens
# Description: SANGER: Inhibition of human 697 cell growth in a cell viability assay.
# [19] = system: MEG-01; assay type: functional, cell-based, Homo sapiens; details: Homo sapiens, MEG-01;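 further: growth inhibition of MEG-01 cells, read out by a cell viability assay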
# Description: SANGER: Inhibition of human MEG-01 cell growth in a cell viability assay.
# [20] = system: MOLT-4; assay type: functional, cell-based, Homo sapiens; details: Homo sapiens, MOLT-4;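 further: growth inhibition of MOLT-4 cells, determined with a cell viability readout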
# Description: SANGER: Inhibition of human MOLT-4 cell growth in a cell viability assay.
# [21] = system: ES4; assay type: functional, cell-based, Homo sapiens; details: Homo sapiens, ES4;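 further: growth inhibition of human ES4 cells, read out by a cell viability assay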
# Description: SANGER: Inhibition of human ES4 cell growth in a cell viability assay.
# [22] = system: ES7; assay type: functional, cell-based, Homo sapiens; details: Homo sapiens, ES7;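 further: growth inhibition of cultured human ES7 cells, read out as cell viability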
# Description: SANGER: Inhibition of human ES7 cell growth in a cell viability assay.
# [23] = system: ETK-1; assay type: functional, cell-based, Homo sapiens; details: Homo sapiens, ETK-1;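 further: growth inhibition of human ETK-1 cells, read out with a cell viability assay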
# Description: SANGER: Inhibition of human ETK-1 cell growth in a cell viability assay.
# [24] = system: RCC10RGB; assay type: functional, cell-based, Homo sapiens; details: Homo sapiens, RCC10RGB;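 further: growth inhibition of human RCC10RGB cells, read out by a cell viability assay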
# Description: SANGER: Inhibition of human RCC10RGB cell growth in a cell viability assay.
# [25] = system: D-392MG; assay type: functional, cell-based, Homo sapiens; details: Homo sapiens, D-392MG
# [26] = system: NB12; assay type: functional, cell-based, Homo sapiens; details: Homo sapiens, NB12;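 further: growth inhibition of human NB12 cells, read out by a cell viability assay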
# Description: SANGER: Inhibition of human NB12 cell growth in a cell viability assay.
# [27] = system: 8-MG-BA; assay type: functional, cell-based, Homo sapiens; details: Homo sapiens, 8-MG-BA;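 further: growth inhibition of 8-MG-BA cells, read out with a cell viability assay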
# Description: SANGER: Inhibition of human 8-MG-BA cell growth in a cell viability assay.
# [28] = system: SW 962; assay type: functional, cell-based, Homo sapiens; details: Homo sapiens, SW 962;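 further: growth inhibition of human SW962 cells, read out by a cell viability assay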
# Description: SANGER: Inhibition of human SW962 cell growth in a cell viability assay.
# [29] = system: LB831-BLC; assay type: functional, cell-based, Homo sapiens; details: Homo sapiens, LB831-BLC;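 further: growth inhibition of LB831-BLC cells, read out with a cell viability assay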
# Description: SANGER: Inhibition of human LB831-BLC cell growth in a cell viability assay.
# [30] = system: NCI-H446; assay type: functional, cell-based, Homo sapiens; details: Homo sapiens, NCI-H446;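 further: growth inhibition of NCI-H446 cells determined by a cell viability assay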
# Description: SANGER: Inhibition of human NCI-H446 cell growth in a cell viability assay.
# [31] = system: NB69; assay type: functional, cell-based, Homo sapiens; details: Homo sapiens, NB69;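 further: growth inhibition of NB69 cells, determined by a cell viability assay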
# Description: SANGER: Inhibition of human NB69 cell growth in a cell viability assay.
# [32] = system: NCI-H1838; assay type: functional, cell-based, Homo sapiens; details: Homo sapiens, NCI-H1838;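 further: growth inhibition of NCI-H1838 cells, determined with a cell viability readout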
# Description: SANGER: Inhibition of human NCI-H1838 cell growth in a cell viability assay.
# [33] = system: ES5; assay type: functional, cell-based, Homo sapiens; details: Homo sapiens, ES5;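 further: growth inhibition of human ES5 cells, read out by a cell viability assay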
# Description: SANGER: Inhibition of human ES5 cell growth in a cell viability assay.
# [34] = system: DJM-1; assay type: functional, cell-based, Homo sapiens; details: Homo sapiens, DJM-1;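 further: growth inhibition of human DJM-1 cells, read out by a cell viability assay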
# Description: SANGER: Inhibition of human DJM-1 cell growth in a cell viability assay.
# [35] = system: U-87 MG; assay type: functional, cell-based, Homo sapiens, U-87MG ATCC; details: Homo sapiens, U-87 MG;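 further: growth inhibition of the cells measured with a viability assay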
# Description: SANGER: Inhibition of human U-87-MG cell growth in a cell viability assay.
# [36] = system: NOS-1; assay type: functional, cell-based, Homo sapiens; details: Homo sapiens, NOS-1;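 further: growth inhibition of the human NOS-1 cell line, read out with a cell viability assay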
# Description: SANGER: Inhibition of human NOS-1 cell growth in a cell viability assay.
# [37] = system: LB2241-RCC; assay type: functional, cell-based, Homo sapiens; details: Homo sapiens, LB2241-RCC;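 further: cell viability assay measuring how strongly the cultured human renal carcinoma line is prevented from growing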
# Description: SANGER: Inhibition of human LB2241-RCC cell growth in a cell viability assay.
# [38] = system: LS-1034; assay type: functional, cell-based, Homo sapiens; details: Homo sapiens, LS-1034
# Description: SANGER: Inhibition of human LS-1034 cell growth in a cell viability assay.
# [39] = system: HD-MY-Z; assay type: functional, cell-based, Homo sapiens; details: Homo sapiens, HD-MY-Z;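 further: growth inhibition of HD-MY-Z cells, read out with a cell viability assay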
# Description: SANGER: Inhibition of human HD-MY-Z cell growth in a cell viability assay.
# [40] = system: TE-8; assay type: functional, cell-based, Homo sapiens; details: Homo sapiens, TE-8;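 further: growth inhibition of TE-8 cells, measured with a cell viability readout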
# Description: SANGER: Inhibition of human TE-8 cell growth in a cell viability assay.
# [41] = system: SH-4; assay type: functional, cell-based, Homo sapiens; details: Homo sapiens, SH-4;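 further: growth inhibition of SH-4 cells, read out with a cell viability assay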
# Description: SANGER: Inhibition of human SH-4 cell growth in a cell viability assay.
# [42] = system: BV-173; assay type: functional, cell-based, Homo sapiens; details: Homo sapiens, BV-173
# Description: SANGER: Inhibition of human BV-173 cell growth in a cell viability assay.
# [43] = system: IST-SL1; assay type: functional, cell-based, Homo sapiens; details: Homo sapiens, IST-SL1;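 further: growth inhibition of human IST-SL1 cells, read out with a cell viability assay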
# Description: SANGER: Inhibition of human IST-SL1 cell growth in a cell viability assay.
# [44] = system: HC-1; assay type: functional, cell-based, Homo sapiens; details: Homo sapiens, HC-1;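 further: growth inhibition of HC-1 cells measured by a cell viability assay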
# Description: SANGER: Inhibition of human HC-1 cell growth in a cell viability assay.
# [45] = system: LB771-HNC; assay type: functional, cell-based, Homo sapiens; details: Homo sapiens, LB771-HNC;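 further: growth inhibition of LB771-HNC human cells, read out with a cell viability assay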
# Description: SANGER: Inhibition of human LB771-HNC cell growth in a cell viability assay.
# [46] = system: SF-268; assay type: functional, cell-based, Homo sapiens; details: Homo sapiens, SF-268;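 further: growth inhibition of SF-268 cells determined with a cell viability assay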
# Description: SANGER: Inhibition of human SF268 cell growth in a cell viability assay.
# [47] = system: SCC-15; assay type: functional, cell-based, Homo sapiens; details: Homo sapiens, SCC-15;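 further: growth inhibition of SCC-15 cells, read out with a cell viability assay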
# Description: SANGER: Inhibition of human SCC-15 cell growth in a cell viability assay.
# [48] = system: GAK; assay type: functional, cell-based, Homo sapiens; details: Homo sapiens, GAK;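 further: cell growth inhibition read out by a cell viability assay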
# Description: SANGER: Inhibition of human GAK cell growth in a cell viability assay.
smiles,measurement,setting,value
C#Cc1cccc(Nc2ncnc3cc(OCCOC)c(OCCOC)cc23)c1 [ERLOTINIB],IC50,[1],> 2 µM
same,IC50,[2],> 2 µM
same,IC50,[3],> 2 µM
same,IC50,[4],> 2 µM
same,IC50,[5],1.93 µM
same,IC50,[6],> 2 µM
same,IC50,[7],> 2 µM
same,IC50,[8],> 2 µM
same,IC50,[9],1.12 µM
same,IC50,[10],> 2 µM
same,IC50,[11],> 2 µM
same,IC50,[12],> 2 µM
same,IC50,[13],> 2 µM
same,IC50,[14],> 2 µM
same,IC50,[15],> 2 µM
same,IC50,[16],> 2 µM
same,IC50,[17],> 2 µM
same,IC50,[18],> 2 µM
same,IC50,[19],> 2 µM
same,IC50,[20],> 2 µM
same,IC50,[21],> 2 µM
same,IC50,[22],> 2 µM
same,IC50,[23],> 2 µM
same,IC50,[24],> 2 µM
same,IC50,[25],> 2 µM
same,IC50,[26],> 2 µM
same,IC50,[27],> 2 µM
same,IC50,[28],> 2 µM
same,IC50,[29],> 2 µM
same,IC50,[30],> 2 µM
same,IC50,[31],> 2 µM
same,IC50,[32],> 2 µM
same,IC50,[33],> 2 µM
same,IC50,[34],> 2 µM
same,IC50,[35],> 2 µM
same,IC50,[36],> 2 µM
same,IC50,[37],> 2 µM
same,IC50,[38],> 2 µM
same,IC50,[39],> 2 µM
same,IC50,[40],> 2 µM
same,IC50,[41],> 2 µM
same,IC50,[42],> 2 µM
same,IC50,[43],> 2 µM
same,IC50,[44],> 2 µM
same,IC50,[45],> 2 µM
same,IC50,[46],> 2 µM
same,IC50,[47],> 2 µM
COc1cc2ncn(-c3cc(OCc4ccccc4S(C)(=O)=O)c(C#N)s3)c2cc1OC [GSK-319347A],IC50,[1],> 5 µM
same,IC50,[2],> 5 µM
same,IC50,[3],> 5 µM
same,IC50,[4],> 5 µM
same,IC50,[5],> 5 µM
same,IC50,[6],> 5 µM
same,IC50,[7],> 5 µM
same,IC50,[8],> 5 µM
same,IC50,[9],> 5 µM
same,IC50,[10],> 5 µM
same,IC50,[11],> 5 µM
same,IC50,[12],> 5 µM
same,IC50,[13],> 5 µM
same,IC50,[14],> 5 µM
same,IC50,[15],> 5 µM
same,IC50,[16],> 5 µM
same,IC50,[17],> 5 µM
same,IC50,[18],> 5 µM
same,IC50,[19],> 5 µM
same,IC50,[20],> 5 µM
same,IC50,[21],> 5 µM
same,IC50,[22],> 5 µM
same,IC50,[23],> 5 µM
same,IC50,[24],> 5 µM
same,IC50,[25],> 5 µM
same,IC50,[26],> 5 µM
same,IC50,[27],> 5 µM
same,IC50,[28],> 5 µM
same,IC50,[29],> 5 µM
same,IC50,[30],> 5 µM
same,IC50,[31],> 5 µM
same,IC50,[32],> 5 µM
same,IC50,[33],> 5 µM
same,IC50,[34],> 5 µM
same,IC50,[35],> 5 µM
same,IC50,[36],> 5 µM
same,IC50,[37],> 5 µM
same,IC50,[38],> 5 µM
same,IC50,[39],> 5 µM
same,IC50,[48],> 5 µM
same,IC50,[40],> 5 µM
same,IC50,[41],> 5 µM
same,IC50,[42],> 5 µM
same,IC50,[43],> 5 µM
same,IC50,[44],> 5 µM
same,IC50,[45],> 5 µM
same,IC50,[46],> 5 µM
same,IC50,[47],> 5 µM
COc1cc(N2CCN(C)CC2)ccc1Nc1ncc2c(n1)N(C)c1ccccc1C(=O)N2C,IC50,[1],> 8 µM
same,IC50,[2],7.54 µM
same,IC50,[3],> 8 µM
same,IC50,[4],> 8 µM
same,IC50,[5],2.71 µM
same,IC50,[6],5.14 µM
same,IC50,[7],3.86 µM
same,IC50,[8],3.84 µM
same,IC50,[9],> 8 µM
same,IC50,[10],2.12 µM
same,IC50,[11],> 8 µM
same,IC50,[12],> 8 µM
same,IC50,[13],> 8 µM
same,IC50,[14],7.34 µM
same,IC50,[15],> 8 µM
same,IC50,[16],> 8 µM
same,IC50,[17],> 8 µM
same,IC50,[18],0.654 µM
same,IC50,[19],4.76 µM
same,IC50,[20],> 8 µM
same,IC50,[21],> 8 µM
same,IC50,[22],> 8 µM
same,IC50,[23],> 8 µM
same,IC50,[24],> 8 µM
same,IC50,[25],> 8 µM
same,IC50,[26],> 8 µM
same,IC50,[27],> 8 µM
same,IC50,[28],> 8 µM
same,IC50,[29],> 8 µM
same,IC50,[30],> 8 µM
same,IC50,[31],7.85 µM
same,IC50,[32],> 8 µM
same,IC50,[33],> 8 µM
same,IC50,[34],> 8 µM
same,IC50,[35],> 8 µM
same,IC50,[36],3.57 µM
same,IC50,[37],> 8 µM
same,IC50,[38],> 8 µM
same,IC50,[39],> 8 µM
same,IC50,[48],> 8 µM
same,IC50,[40],> 8 µM
same,IC50,[41],1.99 µM
same,IC50,[42],7.43 µM
same,IC50,[43],> 8 µM
same,IC50,[44],> 8 µM
same,IC50,[45],> 8 µM
same,IC50,[46],7.55 µM
same,IC50,[47],> 8 µM
